Assay results taken from US20240287062A1, “NAPHTHYRIDONE COMPOUNDS FOR INHIBITION OF RAF KINASES AND/OR BCR-ABL TYROSINE KINASES” (Enliven Inc., priority 2021, published 2024).
Counter-ions that a name gives are not always drawn. Like-named read-outs stand apart in the source and are kept apart here.

Test system: phosphorylated ERK (pERK)
Assay: Detection of phosphorylated ERK (pERK), AlphaLISA in A375 cells
Format: cell-based
Settings: four hours incubation, inhibition of ERK phosphorylation, read-out: PERK ELISA (IC50)
Protocol: A375 cells were counted and seeded at 10,000 cells/well in 384 well plates (Corning 3764) and allowed to adhere overnight.
Compounds were dissolved and serially diluted in DMSO. The compounds were then added, mixed, and incubated for four hours at 37° C., 5% CO2. Compounds were added using four-fold dilutions at final concentrations ranging from 10 μM to 0.01 nM. DMSO only and 10 uM staurosporine were added as high and low controls.
Following the four-hour incubation with compounds, cell lysates were prepared and AlphaLISA assay measuring phosphorylated ERK was performed. Media was removed using the Apricot Designs pipettor. Lysis buffer was made from 1× AlphaLISA SureFire Assay Kit (AlphaLISA SureFire Ultra pERK 12 (Thr202/Tyr204) ALSU-PERK-A50K) lysis buffer with protease and phosphatase inhibitors. Cells were lysed by adding 10 uL to all the wells and mixed for 40 minutes on a plate shaker. 10 uL cell lysate was transferred to a new Optiplate (PerkinElmer 6007290) and incubated with 5 uL 1× acceptor mix for 2 hours in the dark. 5 uL of 1× donor mix was added to all wells and mixed by shaking followed by overnight incubation in the dark.
pERK AlphaLISA signal was read on the Envision using standard AlphaLISA settings. Percent inhibition of ERK phosphorylation was calculated by % Inhibition=100×(LumHC−LumSample)/(LumHC−LumLC). The low and high controls (LC/HC) are generated from lysate from wells with cells treated with DMSO or […] Staurosporine (BioAustralis, cat #BIA-S1086), […]. IC50 values were calculated by fitting the Curve using XLfit (v5.3.1.3), equation 201: Y=Bottom+(Top−Bottom)/(1+10^((Log IC50−X)*HillSlope)).

Row | IC50 (Homo sapiens, A-375, 4 h) | IC50 | Structure (SMILES)
1 | 78.1 nM | – | Cc1cc([C@H](O)C(C)(F)F)ncc1-c1cc2cnc(NC(=O)C3CC3)cc2n(C)c1=O (single isomer, unassigned) [Compound 116, formate]
2 | 61.3 nM | – | Cc1cc([C@@H](O)C(C)(F)F)ncc1-c1cc2cnc(NC(=O)C3CC3)cc2n(C)c1=O (single isomer, unassigned) [Compound 117]
3 | 119 nM | – | CC[C@@H](O)c1cc(C)c(-c2cc3cnc(NC(=O)[C@@H]4CC4(F)F)cc3n(C)c2=O)cn1 (single isomer, unassigned) [Compound 123]
4 | 63.5 nM | – | CC[C@H](O)c1cc(C)c(-c2cc3cnc(NC(=O)[C@@H]4CC4(F)F)cc3n(C)c2=O)cn1 (single isomer, unassigned) [Compound 124]
5 | – | 373 nM | CCC(O)c1cc(C)c(-c2cc3cnc(NC(C)=O)cc3n(C)c2=O)cn1 (single isomer, unassigned) [Example S59, Enantiomer B, N-(3-(6-(1-hydroxypropyl)-4-methylpyridin-3-yl)-1-methyl-2-oxo-1,2-dihydro-1,6-naphthyridin-7-yl)acetamide]
6 | – | 23.9 nM | CCCC(O)c1cc(C)c(-c2cc3cnc(NC(C)=O)cc3n(C)c2=O)cn1 (single isomer, unassigned) [Example S67, Enantiomer B, N-(3-{6-[1-hydroxybutyl]-4-methylpyridin-3-yl}-1-methyl-2-oxo-1,6-naphthyridin-7-yl)acetamide]
7 | – | 1250 nM | CCC(O)c1cc(C)c(-c2cc3cnc(NC(=O)C4CC4)cc3n(C)c2=O)c(C)c1 (stereo in doubt) [Compound 118, (R)—N-(3-(4-(1-hydroxypropyl)-2,6-dimethylphenyl)-1-methyl-2-oxo-1,2-dihydro-1,6-naphthyridin-7-yl)cyclopropanecarboxamide]
8 | – | 313 nM | CCC(O)c1cc(C)c(-c2cc3cnc(NC(=O)C4CC4)cc3n(C)c2=O)c(C)c1 (stereo in doubt) [Compound 119, (R)—N-(3-(4-(1-hydroxypropyl)-2,6-dimethylphenyl)-1-methyl-2-oxo-1,2-dihydro-1,6-naphthyridin-7-yl)cyclopropanecarboxamide]
9 | – | > 10000 nM | CCC(O)c1cc(C)c(-c2cc3cnc(NC(=O)C4CC4)cc3n(C)c2=O)c(C)c1 (stereo in doubt) [Compound 120, (S)—N-(3-(4-(1-hydroxypropyl)-2,6-dimethylphenyl)-1-methyl-2-oxo-1,2-dihydro-1,6-naphthyridin-7-yl)cyclopropanecarboxamide]
10 | – | 151 nM | CCC(O)c1cc(C)c(-c2cc3cnc(NC(=O)C4CC4)cc3n(C)c2=O)c(C)c1 (stereo in doubt) [Compound 121, (S)—N-(3-(4-(1-hydroxypropyl)-2,6-dimethylphenyl)-1-methyl-2-oxo-1,2-dihydro-1,6-naphthyridin-7-yl)cyclopropanecarboxamide]
11 | 478 nM | – | Cc1cc(-n2cccn2)ncc1-c1cc2cnc(NC(=O)C3CC3)cc2n(C)c1=O [Compound 122, N-{1-methyl-3-[4-methyl-6-(pyrazol-1-yl)pyridin-3-yl]-2-oxo-1,6-naphthyridin-7-yl}cyclopropanecarboxamide]
